The source of these data is PubChem BioAssay (NCI).

Assay in all cases: inhibition of tumour cell growth, NCI panel, 48 h
Assay [1] relates to UACC-257 melanoma.
The subject of assay [2] is K-562 leukemia.
Assay [3] concerns SNB-19 CNS.
Assay [4] has as its system NCI-H522 lung.
For assay [5], the system named is TK-10 renal.
The subject of assay [6] is CCRF-CEM leukemia.
Assay [7] relates to HOP-92 NSCLC.
For assay [8], the system named is HCC-2998 colon.
In assay [9] the test system is SW-620 colon.

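Where inhibition never reached the appropriate level, the endpoint shown equals the highest concentration tested. Otherwise, values were interpolated linearly from a five-concentration, 48-hour dose response in 96-well plates. TGI marks complete inhibition of growth.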

Consider `C1CSC[C@H]2COC[C@@H](CSCCS1)S2`, for which the TGI in assay [1], in assay [2], in assay [3], in assay [4], in [5] and in assay [6] was greater than 100 µM in each case. Further, the TGI in assay [7], in assay [8] and in [9] was greater than 100 µM throughout.
With `CN1CCN=C1c1nnn(-c2ccc([N+](=O)[O-])cc2)c1-c1ccccc1`, the TGI was greater than 100 µM in [1]; greater than 100 µM in [2]; greater than 100 µM in [3]; greater than 100 µM in assay [4]; greater than 100 µM in assay [5]; 59 µM in assay [6]. The values for the TGI in assay [7], in assay [8] and in assay [9] were 94.5 µM, greater than 100 µM and greater than 100 µM, respectively.
`CC1=NN(c2ccccc2)C(=O)C12[C@H](c1ccccc1)C2(C#N)C#N` (stereo not given in full): the TGI in [1] was determined as 18.4 µM; in [2] it was 6.12 µM; in assay [3], 29.5 µM; in [4], 11.5 µM; in assay [5], 25 µM; in assay [6] it was 2.78 µM. The values for the TGI in [7], in assay [8] and in assay [9] were 7.81 µM, 34.1 µM and 3.84 µM, respectively.
For the compound `O=C1CC(C2(O)C(=O)Nc3ccc([N+](=O)[O-])cc32)c2ccccc21` (stereo not given), the TGI in [1] is greater than 100 µM; in [2], 60.6 µM; in assay [3], greater than 100 µM; in assay [4], 26.3 µM; in assay [5], greater than 100 µM; in [6], 61.1 µM. Besides, the TGI was 85.4 µM in [7], 44.9 µM in assay [8] and 81.6 µM in assay [9].
Turning to `CCOC(=O)c1sc2c(C(=O)OCC)n3cc(C)cc(C)c3c2c1O`, the TGI in assay [2], in assay [3], in assay [4], in [5], in assay [6] and in assay [7] was greater than 100 µM throughout. In addition, the TGI in assay [8] and in [9] was greater than 100 µM each time.
As for `O=c1c2ccccc2oc2ccccc12` (tested in a mixture with another compound), the TGI in assay [1] is 9.31 µM; in assay [2], greater than 100 µM; in assay [3], greater than 100 µM; in assay [4] it was greater than 100 µM; in assay [6], greater than 100 µM; in [8] it was 89.9 µM. The compound also came in with a TGI in [9] greater than 100 µM.
For the compound `COC(=O)C(=O)C(C(=O)C(=O)Nc1ccccc1[N+](=O)[O-])c1nc2ccc([N+](=O)[O-])cc2[nH]c1=O` (stereo not given), the TGI in assay [1], in [2], in assay [3], in [4], in [6] and in assay [7] was greater than 100 µM in each case. Moreover, the TGI in [9] was greater than 100 µM.
For `C=CCC12CC(=O)CCC1c1ccc(OC)cc1C2=O` (stereo not given), the TGI in [1], in [2], in assay [3], in assay [4], in assay [5] and in [6] was greater than 100 µM each time. Also, the TGI in assay [7], in assay [8] and in assay [9] was greater than 100 µM throughout.
Regarding `COC(=O)/C(C#N)=C1\CCC(OC)N1C` (stereo not given), the TGI in assay [1], in assay [2], in [3], in assay [4], in assay [5] and in [6] was greater than 100 µM each time. Also, the TGI in assay [8] and in [9] was greater than 100 µM each time.
Take `CCCCCCC(=O)C/C(CCC(=O)N(Cc1ccccc1)Cc1ccccc1)=N\NC(N)=O`: the TGI in [1], in assay [2], in assay [3], in [4], in assay [5] and in [6] was greater than 100 µM throughout. In addition, the TGI in assay [7], in assay [8] and in [9] was greater than 100 µM in each case.
Regarding `COc1cc2c(cc1OC)C(C(CBr)CBr)N(C1CCCC1)CC2` (stereo not given), the TGI in assay [1], in assay [2], in assay [3], in assay [4], in assay [5] and in assay [6] was greater than 100 µM each time. The TGI in assay [7], in assay [8] and in [9] was greater than 100 µM in each case.
For the compound `CC(/C=C/C(=O)c1sc(C(N)=S)nc1C)=C\c1ccccc1`, the TGI in assay [1] was greater than 100 µM; in assay [2], greater than 100 µM; in [3] it was 31.2 µM; in [4] it was greater than 100 µM; in [5], greater than 100 µM; in assay [6], greater than 100 µM. The TGI in assay [7] and in [8] was greater than 100 µM each time.
As to `COc1ccc(-c2cc3ccccc3[nH]c2=O)cc1OC`, the TGI in [1], in assay [2], in [3], in assay [4], in assay [5] and in assay [6] was greater than 100 µM each time. In addition, the TGI in assay [8] and in [9] was greater than 100 µM throughout.
Turning to `Brc1cc(C2OCCCO2)ccc1OCc1ccccc1`, the TGI in assay [1], in [2], in assay [3], in assay [4], in assay [5] and in assay [6] was greater than 100 µM in each case. Further, the TGI in [7], in [8] and in [9] was greater than 100 µM throughout.
`CCC1CCCCN1CC(C(C)=O)C(c1ccccc1)c1c(O)c2ccccc2oc1=O` (stereo not given): the TGI in assay [1], in [2], in assay [3], in [4], in [5] and in [6] was greater than 100 µM throughout. The same compound came in with a TGI in [9] greater than 100 µM.
